“And” between values parts separate entries of the source, which are not always exact repeats. Equal values may be shown once.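 In this assay, cells in 96-well plates receive the compound at five concentrations for 48 hours. Endpoints are linearly interpolated between the surrounding concentrations. At the GI50, growth is halved. TGI marks complete inhibition of growth.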
Tests used:
Experiment in all cases: DTP human tumour cell line panel, 48 h
[1] = tested on: CCRF-CEM leukemia
[2] = tested on: HL-60(TB) leukemia
[3] = tested on: K-562 leukemia
[4] = tested on: KM12 colon
[5] = tested on: SF-268 CNS
[6] = tested on: SK-MEL-2 melanoma
[7] = tested on: SW-620 colon
[8] = tested on: MALME-3M melanoma
[9] = tested on: CAKI-1 renal
[10] = tested on: DU-145 prostate

Row | Structure (SMILES) | TGI [1] | TGI [2] [µM] | TGI [3] | TGI [4] | TGI [5] | TGI [6] | TGI [7] | TGI [8] [µM] | GI50 [9] | TGI [9] [µM] | GI50 [1] [µM] | GI50 [10] [µM] | TGI [10] [µM] | GI50 [3] [µM] | GI50 [4] [µM] | GI50 [5] [µM] | GI50 [6] [µM] | GI50 [7] [µM] | GI50 [2] [µM] | GI50 [8] [µM]
1 | CC[C@H](C)N(CCN)C(=O)c1cc2ccccc2c(-c2ccccc2Cl)n1 | 15.7 µM | 23.1 | 12.6 µM | 29.6 µM | 7.81 µM | 33.5 µM | 30 µM |  |  |  |  |  |  |  |  |  |  |  |  | 
2 | O=C(CNc1nncs1)NO |  | > 100 | > 100 µM | > 100 µM | > 100 µM | > 100 µM | > 100 µM | > 100 |  |  |  |  |  |  |  |  |  |  |  | 
3 | ClCc1cccc(Cn2cnc3c(Cl)ncnc32)c1 | 3.85 µM |  | 15.2 µM | 13.4 µM | 15.3 µM | 51.1 µM | 4.33 µM |  | 1.53 µM | 2.93 | 1.91 | 11.2 | 24 | 3.56 | 3.47 | 3.53 | 22.1 | 2.12 |  | 
4 | N#CCC1COc2ccccc2O1 (centres undefined) | > 10 µM | > 10 | > 10 µM | > 10 µM | > 10 µM |  | > 10 µM | > 10 |  | > 10 |  |  | > 10 |  |  |  |  |  |  | 
5 | CC1=C(C)C(=O)c2c(cc3ccc4ccccc4n23)C1=O | > 100 µM | > 100 | > 100 µM | > 100 µM | > 100 µM |  | > 100 µM | > 100 |  |  |  |  |  |  |  |  |  |  |  | 
6 | COc1cc(C2C=C(c3cccc(NC(C)=O)c3)Nc3ncnn32)cc(OC)c1OC (centres undefined) | 4.16 µM | 2.28 | > 44.1 µM | > 100 µM | > 100 µM |  | > 100 µM | > 100 | 0.573 µM | > 100 | 0.72 | 0.44 | 7.34 | 0.447 | 0.396 | 0.675 |  | 0.313 | 0.443 | 0.389
7 | COc1cc(-c2nn(-c3ccc(NC(=O)c4ccc(Cl)c(Cl)c4)cc3)cc2-c2ccncc2)ccc1Cl | > 100 µM | > 100 | > 100 µM | > 100 µM | > 100 µM | > 100 µM | > 100 µM |  | 3.67 µM | > 100 | 4.56 | > 100 | > 100 | 4.05 | 5.97 | > 100 | 5.74 | 5.63 | 8.03 | 
8 | Cc1ccc(-[n+]2c3cc(N)c(C)cc3nc3cc(C)c(Nc4ccccc4)cc32)cc1 | > 100 µM | 0.482 | 2.69 µM | 0.3 µM |  | 0.538 µM | 1.08 µM |  | 0.173 µM | 0.461 | 0.223 | 0.0534 | 1.08 | 0.0393 | 0.0767 |  | 0.235 | 0.0708 | 0.102 | 
9 | O=C(Oc1ccc(Cl)cc1Cl)c1ccccc1Nc1ccnc(C(F)(F)F)c1 | > 100 µM | > 100 | 8.51 µM | 21.1 µM | 13.6 µM | > 100 µM | 32.5 µM |  | 2.1 µM | 4.14 | 3.54 | 15.7 | 30.6 | 3.03 | 3.69 | 3.11 | 20.5 | 4.59 | 6.63 | 
10 | CC(=O)O/C=C(/C=C/OC(C)=O)C(C/C=C(\C)C#CC=C(C)C)OC(C)=O (centres undefined) | > 100 µM | 42.4 | > 100 µM | 61.5 µM | > 100 µM | > 100 µM | > 100 µM | > 100 |  | > 100 |  |  |  |  |  |  |  |  |  | 
11 | CCOc1ccccc1NC(=O)C(=O)CC(=O)c1c(C)n([O-])c2ccccc2[n+]1=O | > 100 µM | > 100 | > 100 µM | > 100 µM | > 100 µM | > 100 µM | > 100 µM | > 100 |  | > 100 |  |  |  |  |  |  |  |  |  | 
12 | CC(=O)n1c(COS(C)(=O)=O)nc2ccccc21 |  |  |  | > 100 µM | > 100 µM | > 100 µM | > 100 µM | > 100 |  | > 100 |  |  | > 100 |  |  |  |  |  |  | 
13 | COC(=O)N[C@H]1CCc2c(Br)c(OC)c(OC)c(OC)c2-c2ccc(SC)c(=O)cc21 | 24.9 µM | < 0.01 | 15.9 µM | 10.6 µM | 16.6 µM |  | 19.7 µM | 30.5 | < 0.0209 µM | 21.9 | < 0.01 | < 0.01 | 0.145 | < 0.01 | < 0.01 | < 0.01 |  | < 0.01 | < 0.01 | 0.0148
14 | CN1CCN(CN2C(=O)C3C4C=CC(C3C2=O)C2C3C(=O)N(CN5CCN(C)CC5)C(=O)C3C42)CC1 (centres undefined) | 65.3 µM and 42 µM and 48.3 µM |  | 81.4 µM and 55.6 µM and 58.2 µM | 41.7 µM and 51.9 µM and > 100 µM | 50.6 µM and > 62.6 µM and 33.9 µM | 40 µM and 35.6 µM and 30 µM | 43.2 µM and > 60.8 µM and 35.1 µM | 34.2 | 44.8 µM and 33.6 µM and 70.6 µM | > 100 |  |  | 77.2 |  |  |  |  |  |  | 
15 | Cc1ccc(OCC(=O)N2N=C(c3ccccc3)CC2(O)c2ccccc2)cc1 (centres undefined) |  | > 100 | > 100 µM | > 100 µM | > 100 µM | > 100 µM | > 100 µM | > 100 |  | > 100 |  |  |  |  |  |  |  |  |  | 
16 | CCC[CH2][Sn-]([CH2]CCC)([CH2]CCC)[O]c1cc(Cl)c(Cl)cc1Cl |  | 0.167 | 0.411 µM | 0.402 µM | 1.05 µM | 1.86 µM | 0.44 µM | 0.379 |  |  |  |  |  | 0.165 | 0.195 | 0.229 | 0.377 | 0.207 | 0.0184 | 0.174
17 | CNC(P(=O)([O-])[O-])P(=O)([O-])[O-].N.N.[Pt+2] |  |  |  |  | > 100 µM | > 100 µM | > 100 µM | > 100 | > 100 µM | > 100 |  |  |  |  |  | > 100 | > 100 | > 100 |  | > 100
18 | COc1ccc2cc(C(=O)/C=C/c3cc(OC)c(OC)c(OC)c3)ccc2c1 | > 50 µM | 20.9 | > 50 µM | 35.7 µM | 13.7 µM |  | 6.91 µM | 25.8 | 3.41 µM | 28.3 | > 50 | 2.06 | 11.2 | 2.49 | 2.3 | 5.11 |  | 1.51 | 5.34 | 11

Reference: PubChem BioAssay (NCI)
